Data reported in the supplement of paper PMC11451515.

Tests used:
Conditions in all cases: 48 h
[1] = system: SEM cells; experiment: AUC of viability dose-response curve (% viability x log10 dose units); higher = less sensitive
Procedure, shortened: (§1)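 In 1536-well plates, leukemia cells adapted to each medium (500 or 1000 cells/well) were exposed for 48 h at 37°C to library compounds in DMSO across 11 threefold doses, 47 μM down to 0.79 nM. Viability was read by CellTiter-Glo One luminescence and normalised per plate to DMSO and cell-free wells. A four-parameter log-logistic fit over log10 doses was integrated by trapezoidal rule. This yielded the area under the curve, with over-full-viability curves scaled and quality-control failures dropped.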

[2] = system: NOMO1; experiment: as above
Procedure, shortened: as §1

[3] = system: P12-Ichikawa; experiment: as above
Procedure, shortened: as §1

[4] = system: SEM cells; experiment: cell viability relative to DMSO control; higher = less cytotoxic
Procedure, shortened: (§2)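 In 1536-well plates, 5 μl of leukemia cells were seeded per well: 500 cells/well for NOMO1 or SEM and 1000 cells/well for P12-Ichikawa. Each line had first been adapted for at least four passages in each medium. Library compounds in DMSO were pin-dosed at 11 threefold concentrations between 47 μM and 0.79 nM, and CellTiter-Glo One luminescence was read after 48 h at 37°C. Viability is a per-plate percentage relative to DMSO wells, with cell-free wells as background.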

[5] = system: NOMO1; experiment: as above
Procedure, shortened: as §2

[6] = system: P12-Ichikawa; experiment: as above
Procedure, shortened: as §2

COc1cc(Nc2ncc(F)c(Nc3ccc4c(n3)N(COP(=O)(O)O)C(=O)C(C)(C)O4)n2)cc(OC)c1OC
AUC of viability dose-response curve
Conditions | [1] | [2] | [3]
HPLM + 10% dialyzed FBS | 287 | 472 | 470
RPMI 5 mM glucose + 10% FBS | 292 | 453 | 456
RPMI 5 mM glucose + 10% dialyzed FBS | 245 | 438 | 457

cell viability [%]
Conditions | [4] | [5] | [6]
HPLM + 10% dialyzed FBS, 0.000781 µM | 77 | 93.5 | 97
HPLM + 10% dialyzed FBS, 0.00234 µM | 88.7 | 94.8 | 102
HPLM + 10% dialyzed FBS, 0.00702 µM | 95.8 | 101 | 101
HPLM + 10% dialyzed FBS, 0.0211 µM | 91.2 | 97.2 | 102
HPLM + 10% dialyzed FBS, 0.0632 µM | 65.9 | 122 | 108
HPLM + 10% dialyzed FBS, 0.19 µM | 55.2 | 106 | 106
HPLM + 10% dialyzed FBS, 0.569 µM | 35 | 87.6 | 105
HPLM + 10% dialyzed FBS, 1.71 µM | 33.5 | 99.5 | 103
HPLM + 10% dialyzed FBS, 5.12 µM | 49.9 | 116 | 110
HPLM + 10% dialyzed FBS, 15.4 µM | 37.1 | 93.5 | 108
HPLM + 10% dialyzed FBS, 46.1 µM | 35.5 | 91.1 | 98.2
RPMI 5 mM glucose + 10% FBS, 0.000781 µM | 98.2 | 80.8 | 100
RPMI 5 mM glucose + 10% FBS, 0.00234 µM | 108 | 90.2 | 98.2
RPMI 5 mM glucose + 10% FBS, 0.00702 µM | 102 | 94.1 | 89.6
RPMI 5 mM glucose + 10% FBS, 0.0211 µM | 107 | 100 | 100
RPMI 5 mM glucose + 10% FBS, 0.0632 µM | 77.9 | 103 | 97.4
RPMI 5 mM glucose + 10% FBS, 0.19 µM | 41.1 | 98.6 | 96.8
RPMI 5 mM glucose + 10% FBS, 0.569 µM | 26.5 | 95.6 | 92.4
RPMI 5 mM glucose + 10% FBS, 1.71 µM | 34.7 | 94.4 | 95.7
RPMI 5 mM glucose + 10% FBS, 5.12 µM | 42.8 | 94.1 | 95.2
RPMI 5 mM glucose + 10% FBS, 15.4 µM | 35.1 | 94.2 | 93.9
RPMI 5 mM glucose + 10% FBS, 46.1 µM | 34.4 | 92.6 | 87.4
RPMI 5 mM glucose + 10% dialyzed FBS, 0.000781 µM | 80.8 | 101 | 92.8
RPMI 5 mM glucose + 10% dialyzed FBS, 0.00234 µM | 96.6 | 89 | 94.8
RPMI 5 mM glucose + 10% dialyzed FBS, 0.00702 µM | 83.5 | 90.8 | 98.4
RPMI 5 mM glucose + 10% dialyzed FBS, 0.0211 µM | 82.1 | 80.2 | 98
RPMI 5 mM glucose + 10% dialyzed FBS, 0.0632 µM | 60.2 | 89.6 | 103
RPMI 5 mM glucose + 10% dialyzed FBS, 0.19 µM | 35.7 | 102 | 97.7
RPMI 5 mM glucose + 10% dialyzed FBS, 0.569 µM | 25.1 | 88.5 | 93.9
RPMI 5 mM glucose + 10% dialyzed FBS, 1.71 µM | 23.7 | 86.6 | 91.1
RPMI 5 mM glucose + 10% dialyzed FBS, 5.12 µM | 35.1 | 94.6 | 101
RPMI 5 mM glucose + 10% dialyzed FBS, 15.4 µM | 22 | 89.4 | 91.6
RPMI 5 mM glucose + 10% dialyzed FBS, 46.1 µM | 24.6 | 99.1 | 91.6

Cc1cccc(N(C)C(=S)Oc2ccc3ccccc3c2)c1
AUC of viability dose-response curve
Conditions | [1] | [2] | [3]
HPLM + 10% dialyzed FBS | 445 | 460 | 469
RPMI 5 mM glucose + 10% FBS | 470 | 470 | 466
RPMI 5 mM glucose + 10% dialyzed FBS | 476 | 469 | 471

cell viability [%]
Conditions | [4] | [5] | [6]
HPLM + 10% dialyzed FBS, 0.000781 µM | 79.4 | 110 | 98.1
HPLM + 10% dialyzed FBS, 0.00234 µM | 91.8 | 120 | 114
HPLM + 10% dialyzed FBS, 0.00702 µM | 83.8 | 116 | 109
HPLM + 10% dialyzed FBS, 0.0211 µM | 98.8 | 124 | 109
HPLM + 10% dialyzed FBS, 0.0632 µM | 90.7 | 117 | 118
HPLM + 10% dialyzed FBS, 0.19 µM | 104 | 112 | 94.2
HPLM + 10% dialyzed FBS, 0.569 µM | 96.8 | 123 | 107
HPLM + 10% dialyzed FBS, 1.71 µM | 84.7 | 121 | 109
HPLM + 10% dialyzed FBS, 5.12 µM | 106 | 100 | 111
HPLM + 10% dialyzed FBS, 15.4 µM | 96.5 | 92 | 111
HPLM + 10% dialyzed FBS, 46.1 µM | 87.2 | 110 | 109
RPMI 5 mM glucose + 10% FBS, 0.000781 µM | 79.7 | 99.9 | 109
RPMI 5 mM glucose + 10% FBS, 0.00234 µM | 102 | 94.2 | 107
RPMI 5 mM glucose + 10% FBS, 0.00702 µM | 96.1 | 106 | 111
RPMI 5 mM glucose + 10% FBS, 0.0211 µM | 90.8 | 107 | 112
RPMI 5 mM glucose + 10% FBS, 0.0632 µM | 108 | 108 | 113
RPMI 5 mM glucose + 10% FBS, 0.19 µM | 86.7 | 98.8 | 116
RPMI 5 mM glucose + 10% FBS, 0.569 µM | 110 | 97.2 | 116
RPMI 5 mM glucose + 10% FBS, 1.71 µM | 109 | 97.3 | 112
RPMI 5 mM glucose + 10% FBS, 5.12 µM | 107 | 94.5 | 107
RPMI 5 mM glucose + 10% FBS, 15.4 µM | 99.4 | 103 | 99.6
RPMI 5 mM glucose + 10% FBS, 46.1 µM | 85 | 99.6 | 92.4
RPMI 5 mM glucose + 10% dialyzed FBS, 0.000781 µM | 95.6 | 98.1 | 95.1
RPMI 5 mM glucose + 10% dialyzed FBS, 0.00234 µM | 114 | 105 | 101
RPMI 5 mM glucose + 10% dialyzed FBS, 0.00702 µM | 102 | 99.8 | 104
RPMI 5 mM glucose + 10% dialyzed FBS, 0.0211 µM | 108 | 112 | 108
RPMI 5 mM glucose + 10% dialyzed FBS, 0.0632 µM | 108 | 99.8 | 104
RPMI 5 mM glucose + 10% dialyzed FBS, 0.19 µM | 96.7 | 95.2 | 109
RPMI 5 mM glucose + 10% dialyzed FBS, 0.569 µM | 129 | 107 | 106
RPMI 5 mM glucose + 10% dialyzed FBS, 1.71 µM | 117 | 110 | 109
RPMI 5 mM glucose + 10% dialyzed FBS, 5.12 µM | 115 | 104 | 103
RPMI 5 mM glucose + 10% dialyzed FBS, 15.4 µM | 101 | 101 | 104
RPMI 5 mM glucose + 10% dialyzed FBS, 46.1 µM | 89 | 106 | 80.4

O=C(O)c1ccc(-c2c[nH]c3ncc(-c4ccccc4)cc23)cc1C1CCCC1
AUC of viability dose-response curve
Conditions | [1] | [2] | [3]
HPLM + 10% dialyzed FBS | 435 | 466 | 458
RPMI 5 mM glucose + 10% FBS | 404 | 471 | 453
RPMI 5 mM glucose + 10% dialyzed FBS | 400 | 468 | 450

cell viability [%]
Conditions | [4] | [5] | [6]
HPLM + 10% dialyzed FBS, 0.000781 µM | 98 | 114 | 108
HPLM + 10% dialyzed FBS, 0.00234 µM | 103 | 120 | 113
HPLM + 10% dialyzed FBS, 0.00702 µM | 113 | 121 | 123
HPLM + 10% dialyzed FBS, 0.0211 µM | 113 | 130 | 116
HPLM + 10% dialyzed FBS, 0.0632 µM | 118 | 134 | 122
HPLM + 10% dialyzed FBS, 0.19 µM | 125 | 134 | 119
HPLM + 10% dialyzed FBS, 0.569 µM | 99 | 131 | 120
HPLM + 10% dialyzed FBS, 1.71 µM | 108 | 138 | 122
HPLM + 10% dialyzed FBS, 5.12 µM | 82.4 | 126 | 117
HPLM + 10% dialyzed FBS, 15.4 µM | 63.5 | 134 | 80.8
HPLM + 10% dialyzed FBS, 46.1 µM | 66.6 | 110 | 92.6
RPMI 5 mM glucose + 10% FBS, 0.000781 µM | 111 | 118 | 119
RPMI 5 mM glucose + 10% FBS, 0.00234 µM | 110 | 108 | 131
RPMI 5 mM glucose + 10% FBS, 0.00702 µM | 111 | 131 | 113
RPMI 5 mM glucose + 10% FBS, 0.0211 µM | 109 | 123 | 126
RPMI 5 mM glucose + 10% FBS, 0.0632 µM | 121 | 127 | 134
RPMI 5 mM glucose + 10% FBS, 0.19 µM | 113 | 123 | 133
RPMI 5 mM glucose + 10% FBS, 0.569 µM | 101 | 130 | 138
RPMI 5 mM glucose + 10% FBS, 1.71 µM | 91.8 | 132 | 131
RPMI 5 mM glucose + 10% FBS, 5.12 µM | 69.8 | 113 | 129
RPMI 5 mM glucose + 10% FBS, 15.4 µM | 47.1 | 115 | 67
RPMI 5 mM glucose + 10% FBS, 46.1 µM | 43.2 | 117 | 105
RPMI 5 mM glucose + 10% dialyzed FBS, 0.000781 µM | 114 | 108 | 114
RPMI 5 mM glucose + 10% dialyzed FBS, 0.00234 µM | 116 | 127 | 124
RPMI 5 mM glucose + 10% dialyzed FBS, 0.00702 µM | 119 | 112 | 126
RPMI 5 mM glucose + 10% dialyzed FBS, 0.0211 µM | 138 | 133 | 130
RPMI 5 mM glucose + 10% dialyzed FBS, 0.0632 µM | 114 | 137 | 132
RPMI 5 mM glucose + 10% dialyzed FBS, 0.19 µM | 115 | 126 | 125
RPMI 5 mM glucose + 10% dialyzed FBS, 0.569 µM | 123 | 125 | 138
RPMI 5 mM glucose + 10% dialyzed FBS, 1.71 µM | 101 | 132 | 133
RPMI 5 mM glucose + 10% dialyzed FBS, 5.12 µM | 65.3 | 120 | 121
RPMI 5 mM glucose + 10% dialyzed FBS, 15.4 µM | 44.1 | 105 | 73.6
RPMI 5 mM glucose + 10% dialyzed FBS, 46.1 µM | 35.3 | 119 | 96.3
